Data on three compounds can be found in patent publication US6825348B2, “Antiviral compounds” (Academia Sinica, priority 2002, dated 2004).

In this assay the target is PRPP synthetase (UniProt P0A717). In words: PRPP synthetase reaction, conversion to diphosphates and inhibition of AMP phosphorylation. In kind it is biochemical. On the procedure: Enzymatic Conversion of Acyclic Nucleoside Phosphonates and Nucleotide 5′-Monophosphate Analog to Their Antivirally Active Diphosphates (Triphosphate Equivalents). Substrate affinities of acyclic nucleoside phosphonates 4, 20, 21, and dinucleotide analog 24 for PRPP synthetase as well as their inhibitory effect against the enzyme were evaluated according to the established procedures. See, e.g., Balzarini et al. (1991) J. Biol. Chem. 266: 8686-8689 and references cited therein. The assays were then terminated after 4 h by the addition of MeOH. HPLC on an anion-exchange Partisphere column was used to analyze the formation of […] 21pp, PMEApp, 4pp, 20pp, and 24pp.

Setting [1] is: conversion to diphosphate by PRPP synthetase.

`Nc1ncnc2c1ncn2[C@@H]1O[C@H](COP(=O)(O)O)[C@@H](O)[C@H]1O` [AMP 21, adenosine 5′-monophosphate, reference compound]: the Vmax under setting [1] is given as 14.270 μmol/unit/h and the “Vmax” value (phosphorylation by PRPP synthetase, no unit in text) came out at 14.
As for `Nc1ncnc2ncn(CCOCP(=O)(O)O)c12` [Compound 20, 7-[2-(Phosphonomethoxy)ethyl]adenine], the “substrate affinity for PRPP synthetase, times less than that of PMEA 4” value was 4 times. In addition, the Vmax under setting [1] is recorded as 0.013 μmol/unit/h.
For `Nc1ncnc2c1ncn2CCOCP(=O)(O)O` [PMEA 4, 9-[2-(phosphonomethoxy)ethyl]adenine, reference compound], the Vmax under setting [1] was determined as 0.096 μmol/unit/h.
